Test results as given in BindingDB's records for doi:10.1021/jm0500875 (Pfizer, 2005).
Counter-ions that a name gives are not always drawn.

Legend:
Assay in all cases: Enzyme Inhibition Assay
[1] = target: 72 kDa type IV collagenase (Homo sapiens, UniProt P08253)
Protocol: (§1) Inhibitors were assayed against purified hMMP-1, hMMP-2, hMMP-3, hMMP-8, hMMP-9, and hMMP-13 using an enzyme assay based on cleavage of the quenched fluorogenic peptide substrate. The increase in fluorescence due to cleavage of the substrate was measured with a fluorescence microplate reader. The Ki values were calculated by nonlinear regression analysis using the percent inhibition, and Km values of the substrates for each MMP.

[2] = target: Collagenase 3 (Homo sapiens, UniProt P45452)
Protocol: as §1

[3] = target: T1, Interstitial collagenase (Homo sapiens, UniProt P03956)
T1 sequence (P03956 whole entry): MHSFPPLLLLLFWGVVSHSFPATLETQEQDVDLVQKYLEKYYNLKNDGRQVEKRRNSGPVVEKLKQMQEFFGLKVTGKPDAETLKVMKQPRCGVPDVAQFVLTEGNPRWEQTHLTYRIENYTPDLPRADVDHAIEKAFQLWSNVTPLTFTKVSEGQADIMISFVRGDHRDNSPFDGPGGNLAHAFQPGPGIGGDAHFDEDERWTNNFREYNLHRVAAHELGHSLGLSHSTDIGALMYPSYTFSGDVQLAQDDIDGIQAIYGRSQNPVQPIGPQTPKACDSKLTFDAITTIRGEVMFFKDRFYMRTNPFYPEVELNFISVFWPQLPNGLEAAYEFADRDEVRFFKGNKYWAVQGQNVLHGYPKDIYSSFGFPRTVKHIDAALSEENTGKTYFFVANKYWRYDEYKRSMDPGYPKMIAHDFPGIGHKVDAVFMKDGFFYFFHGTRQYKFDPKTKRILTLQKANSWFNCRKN
Protocol: as §1

[4] = target: Stromelysin-1 (Homo sapiens, UniProt P08254)
Protocol: as §1

[5] = target: Matrix metalloproteinase-9 (Homo sapiens, UniProt P14780)
Protocol: as §1

[6] = target: Neutrophil collagenase (Homo sapiens, UniProt P22894)
Protocol: as §1

72 kDa type IV collagenase, sequence (P08253 whole entry): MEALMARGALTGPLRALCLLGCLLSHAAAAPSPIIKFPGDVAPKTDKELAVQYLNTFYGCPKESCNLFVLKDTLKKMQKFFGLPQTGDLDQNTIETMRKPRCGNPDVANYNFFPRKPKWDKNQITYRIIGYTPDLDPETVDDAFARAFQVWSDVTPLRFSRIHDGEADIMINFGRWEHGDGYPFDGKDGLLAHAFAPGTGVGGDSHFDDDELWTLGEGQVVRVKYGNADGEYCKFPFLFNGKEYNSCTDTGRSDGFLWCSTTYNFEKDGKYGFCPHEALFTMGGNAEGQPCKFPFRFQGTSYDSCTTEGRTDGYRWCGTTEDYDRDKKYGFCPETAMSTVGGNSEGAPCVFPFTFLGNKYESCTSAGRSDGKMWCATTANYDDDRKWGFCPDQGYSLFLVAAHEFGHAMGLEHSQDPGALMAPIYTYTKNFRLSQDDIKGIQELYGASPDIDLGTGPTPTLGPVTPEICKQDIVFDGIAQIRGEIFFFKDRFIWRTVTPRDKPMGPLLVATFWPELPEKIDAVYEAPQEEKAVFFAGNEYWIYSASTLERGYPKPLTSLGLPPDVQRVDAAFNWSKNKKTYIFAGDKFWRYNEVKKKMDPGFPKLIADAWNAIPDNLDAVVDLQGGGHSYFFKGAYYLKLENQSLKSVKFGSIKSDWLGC
Stromelysin-1, sequence (P08254 whole entry): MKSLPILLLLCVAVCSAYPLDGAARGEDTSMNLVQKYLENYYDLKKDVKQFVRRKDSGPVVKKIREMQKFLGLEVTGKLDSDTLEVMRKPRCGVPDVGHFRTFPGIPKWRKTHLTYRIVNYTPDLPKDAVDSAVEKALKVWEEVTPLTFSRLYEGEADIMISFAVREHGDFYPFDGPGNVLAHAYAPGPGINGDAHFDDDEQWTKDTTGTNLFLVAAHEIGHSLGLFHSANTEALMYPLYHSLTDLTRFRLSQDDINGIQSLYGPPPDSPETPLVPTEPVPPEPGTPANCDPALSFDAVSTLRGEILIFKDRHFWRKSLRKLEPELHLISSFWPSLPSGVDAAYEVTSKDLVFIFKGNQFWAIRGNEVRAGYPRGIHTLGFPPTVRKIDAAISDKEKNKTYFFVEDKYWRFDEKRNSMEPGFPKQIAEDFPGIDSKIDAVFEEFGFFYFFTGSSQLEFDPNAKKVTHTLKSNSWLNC
Neutrophil collagenase, sequence (P22894 whole entry): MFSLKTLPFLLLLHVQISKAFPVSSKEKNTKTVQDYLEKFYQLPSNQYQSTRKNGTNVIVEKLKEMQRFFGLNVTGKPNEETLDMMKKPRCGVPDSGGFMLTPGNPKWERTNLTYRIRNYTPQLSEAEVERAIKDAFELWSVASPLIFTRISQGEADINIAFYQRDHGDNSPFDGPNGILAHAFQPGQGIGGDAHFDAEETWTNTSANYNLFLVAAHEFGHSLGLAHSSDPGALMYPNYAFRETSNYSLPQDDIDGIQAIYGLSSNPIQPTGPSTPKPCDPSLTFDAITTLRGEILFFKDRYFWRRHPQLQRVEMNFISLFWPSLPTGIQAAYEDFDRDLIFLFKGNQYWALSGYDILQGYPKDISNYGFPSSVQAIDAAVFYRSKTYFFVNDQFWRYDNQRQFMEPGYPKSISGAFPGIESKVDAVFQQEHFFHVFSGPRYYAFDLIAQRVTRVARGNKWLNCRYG
Matrix metalloproteinase-9, sequence (P14780 whole entry): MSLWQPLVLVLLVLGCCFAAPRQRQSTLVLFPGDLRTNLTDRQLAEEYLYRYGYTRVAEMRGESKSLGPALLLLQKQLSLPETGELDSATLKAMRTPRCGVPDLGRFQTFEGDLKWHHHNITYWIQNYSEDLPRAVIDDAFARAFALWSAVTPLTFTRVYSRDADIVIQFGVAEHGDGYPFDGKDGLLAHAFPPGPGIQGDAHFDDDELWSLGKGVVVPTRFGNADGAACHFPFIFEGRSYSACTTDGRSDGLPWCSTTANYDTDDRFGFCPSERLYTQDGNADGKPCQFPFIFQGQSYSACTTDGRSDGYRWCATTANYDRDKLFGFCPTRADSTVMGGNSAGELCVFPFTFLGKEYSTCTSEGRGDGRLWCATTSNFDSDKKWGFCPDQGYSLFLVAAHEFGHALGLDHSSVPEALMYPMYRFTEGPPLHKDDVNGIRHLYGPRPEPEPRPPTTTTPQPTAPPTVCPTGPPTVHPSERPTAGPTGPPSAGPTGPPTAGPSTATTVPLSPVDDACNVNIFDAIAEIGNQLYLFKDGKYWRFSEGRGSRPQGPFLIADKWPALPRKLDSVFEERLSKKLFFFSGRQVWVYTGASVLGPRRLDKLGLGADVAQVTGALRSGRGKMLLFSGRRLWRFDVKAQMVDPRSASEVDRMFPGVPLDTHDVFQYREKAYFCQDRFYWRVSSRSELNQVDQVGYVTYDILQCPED

Structure (SMILES) | Ki [1] [nM] | Ki [2] [nM] | Ki ([3]; pH 7.5, 25 °C) [nM] | Ki [3] [nM] | Ki [4] [nM] | Ki [5] [nM] | Ki [6] [nM]
O=C(NO)C1(S(=O)(=O)c2ccc(Oc3ccccc3)cc2)CCN(CC2CC2)CC1 [1-(Cyclopropylmethyl)-N-hydroxy-4-[(4-phenoxyphenyl)sulfonyl]piperidine-4-carboxamide Hydrochloride] | < 0.1 | < 0.1 | 770 |  |  |  | 
O=C(NO)C1(S(=O)(=O)c2ccc(Oc3ccc(Cl)cc3)cc2)CCOCC1 [4-{[4-(4-chlorophenoxy)benzene]sulfonyl}-N-hydroxyoxane-4-carboxamide] | < 0.1 |  |  |  | 18.1 |  | 
CC(=O)N1CCC(C(=O)NO)(S(=O)(=O)c2ccc(Sc3ccccc3)cc2)CC1 [1-acetyl-N-hydroxy-4-{[4-(phenylsulfanyl)benzene]sulfonyl}piperidine-4-carboxamide] | 0.4 | 0.6 |  | 7300 | 23 | 8 | 5
CC(=O)N1CCC(C(=O)NO)(S(=O)(=O)c2ccc(Oc3ccccc3)cc2)CC1 [1-Acetyl-N-hydroxy-4-{[4-(phenoxyphenyl]sulfonyl}-piperidine-4-carboxamide] |  | < 0.1 |  | 464 |  |  | 
COCCN1CCC(C(=O)NO)(S(=O)(=O)c2ccc(Sc3ccccc3)cc2)CC1 [N-hydroxy-1-(2-methoxyethyl)-4-{[4-(phenylsulfanyl)benzene]sulfonyl}piperidine-4-carboxamide hydrochloride] | 0.3 | 0.5 |  | > 10000 | 20 | 3 | 4
CN1CCC(C(=O)NO)(S(=O)(=O)c2ccc(Sc3ccccc3)cc2)CC1 [N-Hydroxy-1-methyl-4-{[4-(phenylthio)phenyl]sulfonyl}-piperidine-4-carboxamide Hydrochloride] | 0.5 | 0.68 |  | > 10000 | 39.3 | 9.4 | 
O=C(NO)C1(S(=O)(=O)c2ccc(Sc3ccccc3)cc2)CCN(C2CC2)CC1 [1-Cyclopropyl-N-hydroxy-4-{[4-(phenylthio)phenyl]-sulfonyl}piperidine-4-carboxamide Hydrochloride] | 0.1 | 0.2 |  | > 10000 | 23.5 | 2.5 | 3.5
O=C(NO)C1(S(=O)(=O)c2ccc(Oc3ccccc3)cc2)CCN(C2CC2)CC1 [1-cyclopropyl-N-hydroxy-4-[(4-phenoxybenzene)sulfonyl]piperidine-4-carboxamide hydrochloride] | 0.2 |  |  |  | 0.3 | 0.6 | 
C#CCN1CCC(CS(=O)(=O)c2ccc(Oc3ccccc3)cc2)(C(=O)NO)CC1 | 0.25 | 0.55 | 417 |  | 35 | 4.5 | 
COCCN1CCC(C(=O)NO)(S(=O)(=O)c2ccc(Oc3ccccc3)cc2)CC1 [N-hydroxy-1-(2-methoxyethyl)-4-[(4-phenoxybenzene)sulfonyl]piperidine-4-carboxamide hydrochloride] | 0.1 | 0.1 | 350 |  | 0.3 | 0.7 | 
C#CCN1CCC(C(=O)NO)(S(=O)(=O)c2ccc(Oc3ccccc3)cc2)CC1 [N-Hydroxy-4-{[4-(phenoxyphenyl]sulfonyl}-1-(2-propynyl)4-piperidinecarboxamide, Monohydrochloride] | 0.13 | 0.22 | 274 |  | 12.6 | 0.4 | 
O=C(NO)C1(CS(=O)(=O)c2ccc(Oc3ccc(Cl)cc3)cc2)CCOCC1 |  |  | 800 |  | 17.5 |  | 1.8
C#CCN1CCC(CS(=O)(=O)c2ccc(Oc3ccc(C)c(C)c3)cc2)(C(=O)NO)CC1 [4-({[4-(3,4-Dimethylphenoxy)phenyl]sulfonyl}methyl)-N-hydroxy-1-prop-2-ynylpiperidine-4-carboxamide Hydrochloride] | 0.9 | 0.8 |  |  | 18.1 | 7 | 
O=C(NO)C1(CS(=O)(=O)c2ccc(Oc3ccccc3)cc2)CCN(CCc2ccccc2)CC1 | 0.3 |  | 700 |  | 42.5 | 9 | 3
CCN1CCC(C(=O)NO)(S(=O)(=O)c2ccc(Sc3ccccc3)cc2)CC1 [1-ethyl-N-hydroxy-4-{[4-(phenylsulfanyl)benzene]sulfonyl}piperidine-4-carboxamide hydrochloride] | 0.8 | 0.8 |  | > 10000 |  |  | 
COc1cccc(CN2CCC(CS(=O)(=O)c3ccc(Oc4ccccc4)cc3)(C(=O)NO)CC2)c1 [N-hydroxy-1-[(3-methoxyphenyl)methyl]-4-{[(4-phenoxybenzene)sulfonyl]methyl}piperidine-4-carboxamide hydrochloride] | 0.2 | 0.4 | 330 |  | 18.1 | 1.1 | 

Second part, the compound after the results:

Ki [1] [nM] | Ki [2] [nM] | Ki ([3]; pH 7.5, 25 °C) [nM] | Ki [3] [nM] | Ki [4] [nM] | Ki [5] [nM] | Ki [6] [nM] | Structure (SMILES)
0.1 | 0.25 |  | 220 |  |  |  | CC(C)(C(=O)NO)S(=O)(=O)c1ccc(Oc2ccccc2)cc1 [N-hydroxy-2-methyl-2-[(4-phenoxybenzene)sulfonyl]propanamide]
0.15 | 0.3 |  | > 10000 |  |  |  | C=CCN1CCC(C(=O)NO)(S(=O)(=O)c2ccc(Sc3ccccc3)cc2)CC1 [N-hydroxy-4-{[4-(phenylsulfanyl)benzene]sulfonyl}-1-(prop-2-en-1-yl)piperidine-4-carboxamide hydrochloride]
2 | 2.6 |  | > 10000 | 32 | 14.7 | 4 | CS(=O)(=O)N1CCC(C(=O)NO)(S(=O)(=O)c2ccc(Sc3ccccc3)cc2)CC1 [N-hydroxy-1-methanesulfonyl-4-{[4-(phenylsulfanyl)benzene]sulfonyl}piperidine-4-carboxamide]
0.22 | 0.37 | 1060 |  | 59 | 5 | 3.5 | O=C(NO)C1(S(=O)(=O)c2ccc(Oc3ccccc3)cc2)CCNCC1 [N-hydroxy-4-[(4-phenoxybenzene)sulfonyl]piperidine-4-carboxamide]
0.33 |  |  | 8660 | 13 |  | 1.8 | C#CCN1CCC(C(=O)NO)(S(=O)(=O)c2ccc(Sc3ccccc3)cc2)CC1 [N-hydroxy-4-{[4-(phenylsulfanyl)benzene]sulfonyl}-1-(prop-2-yn-1-yl)piperidine-4-carboxamide hydrochloride]
0.3 | 0.5 |  | 800 |  | 1 |  | CS(=O)(=O)N1CCC(C(=O)NO)(S(=O)(=O)c2ccc(Oc3ccccc3)cc2)CC1 [N-hydroxy-1-methanesulfonyl-4-[(4-phenoxybenzene)sulfonyl]piperidine-4-carboxamide]
2.6 | 5.1 |  | 6600 |  |  |  | O=C(CS(=O)(=O)c1ccc(Oc2ccccc2)cc1)NO [N-hydroxy-2-[(4-phenoxybenzene)sulfonyl]acetamide]
2.8 | 8 | 2400 |  | 158 | 30 | 2.4 | O=C(NO)C1(CS(=O)(=O)c2ccc(Oc3ccccc3)cc2)CCNCC1 [N-hydroxy-4-{[(4-phenoxybenzene)sulfonyl]methyl}piperidine-4-carboxamide hydrochloride]
< 0.1 | 0.1 | 464 |  |  | 0.29 |  | CN1CCC(C(=O)NO)(S(=O)(=O)c2ccc(Oc3ccccc3)cc2)CC1 [N-hydroxy-1-methyl-4-[(4-phenoxybenzene)sulfonyl]piperidine-4-carboxamide hydrochloride]
0.2 | 0.2 | 475 |  |  |  |  | CC(C)(C)OC(=O)N1CCC(CS(=O)(=O)c2ccc(Oc3ccccc3)cc2)(C(=O)NO)CC1 [tert-Butyl 4-[(Hydroxyamino)carbonyl]-4-{[(4-phenoxyphenyl)sulfonyl]methyl}piperidine-1-carboxylate]
0.2 | 0.3 | 1140 |  |  |  |  | CC(C)(C)OC(=O)N1CCC(C(=O)NO)(S(=O)(=O)c2ccc(Oc3ccccc3)cc2)CC1 [tert-butyl 4-(hydroxycarbamoyl)-4-[(4-phenoxybenzene)sulfonyl]piperidine-1-carboxylate]
